Our source for the Ki values is patent publication US5635537A, “8-substituted-2-aminotetralins” (Astra Aktiebolag, priority 1989, dated 1997).

The test concerns the target T1, 5HT1A (Rattus norvegicus, UniProt P19327).
T1 construct: Cerebral cortex + hippocampus from each rat was dissected and homogenized; from tissue; host or cells: rat cerebral cortex + hippocampus homogenate
T1 sequence (P19327 1-422): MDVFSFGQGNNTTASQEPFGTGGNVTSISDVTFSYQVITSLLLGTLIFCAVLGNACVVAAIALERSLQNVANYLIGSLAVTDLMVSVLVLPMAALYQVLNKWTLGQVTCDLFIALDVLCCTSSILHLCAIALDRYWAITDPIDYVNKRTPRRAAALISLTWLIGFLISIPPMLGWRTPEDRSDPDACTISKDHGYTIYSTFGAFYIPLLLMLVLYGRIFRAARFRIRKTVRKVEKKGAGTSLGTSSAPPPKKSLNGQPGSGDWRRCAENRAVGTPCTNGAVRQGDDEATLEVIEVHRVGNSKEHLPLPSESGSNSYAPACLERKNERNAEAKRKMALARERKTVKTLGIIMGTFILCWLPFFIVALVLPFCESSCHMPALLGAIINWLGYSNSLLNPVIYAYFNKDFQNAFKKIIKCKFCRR
Nature of the test: 5HT1A binding assay (receptor binding, 3H-8-OH-DPAT, rat cerebral cortex + hippocampus). The following applies: 3H-8-OH-DPAT (0.25 to 8 nM), rat cerebral cortex + hippocampus homogenate, 37° C., 10 min, pH 7.5. As to the method:
Another observation is that some of these compounds have a particularly good oral bioavailability. In order to evaluate the affinity for this subgroup of/the 5-HT-receptors, the effects on various receptors in rat brain were measured in vitro using receptor assays (Ki nM).
5HT1A binding assay. Cerebral cortex + hippocampus from each rat was dissected and homogenized in 15 ml ice-cold 50 mM Tris-HCl buffer 4.0 mM CaCl2 and 5.7 mM ascorbic acid, pH 7.5 with an Ultra-Turrax (Janke & Kunkel, Staufen, FRG) for ten s. After centrifugation for 12.5 min at 17,000 rpm (39,800×g in a Beckman centrifuge with a chilled JA-17 rotor (Beckman, Palo Alto, Calif., USA), the pellets were resuspended in the same buffer and homogenization and centrifugation repeated. To each pellet 5 ml ice-cold 0.32M sucrose were added and homogenized for 5 sec. These samples were kept frozen at -70° C. When used they were diluted with the buffer to 8 mg tissue/ml and homogenized for 10 sec.
The tissue homogenates were incubated for ten min at 37° C. and then supplied with 10 μM pargyline followed by reincubation for 10 min.
The binding assay followed that described by Peroutka, J. Neurochem. 47, 529-540, (1986). The incubation mixture (2 ml) contained ^3 H-8-OH-DPAT (0.25 to 8 nM), 5 mg/ml tissue homogenate in 50 mM Tris-HCl buffer containing 4.0 mM CaCl2 and 5.7 mM ascorbic acid, pH 7.5. Six different concentrations of ^3 H-8-OH-DPAT were analyzed. Binding experiments were started by the addition of tissue homogenate and followed by incubation at 37° C. for ten min. The incubation mixtures were filtered through Whatman GF/B glass filters with a Brandel Cell Harvester (Gaithersburg, Md., USA). The filters were washed twice with 5 ml ice-cold 50 mM Tria-HCl buffer, pH 7.5, and counted with 5 ml Ready-solv HP (Beckman) in a Beckman LS 3801 scintillation counter. Non-specific binding was measured by the addition of 10 μM 5-HT to the reaction mixture. The binding data was processed by non-linear least squares computer/analysis (Munson and Rodbard, Anal. Biochem. 107, 220-239, (1980).

pKi: −log10 of the molar value. Structures can show the parent of a compound that is named as a salt.

Usually pKi stands for −log10 of the Ki, conventionally taken in molar units. Regarding `CCCN(CCC)C1CCc2cccc(C(C)=O)c2C1` (single isomer, unassigned; (+)) [Example 6, (+)-8-Acetyl-2-(dipropylamino)tetralin hydrochloride], the pKi was 8.77.

As to `CCCN(CCC)C1CCc2cccc(C(C)=O)c2C1` (racemic) [Example 2, (±)-8-Acetyl-2-(dipropylamino)tetralin hydrochloride], the pKi is 9.05.

Turning to `CCCN(CCC)C1CCc2cccc(-c3ccco3)c2C1` (racemic) [Example 11, (±)-8-(2-Furanyl)-2-(dipropylamino)tetralin oxalate], the pKi was 8.82.
